{
  "source": "patent US20250281740A1",
  "about": "“Electroporation process for delivering a composition comprising at least one peptide of molecular weight ranging from 500 Da to 20 kDa” (L'OREAL, priority 2021, published 2025)",
  "test": "penetration into a human skin sample, topical application versus application combined with electroporation, amount determined by ELISA",
  "format": "in vitro ADME",
  "description": "To test the effect of the device, a sample of human skin is peripherally attached to a support, with the counterelectrode of the electroporation device placed between the inner face of the skin and the support. The electrode of the electroporation device is placed in contact with the outer face of the skin sample. The case of the electroporation device is immobilized by a support. The support is placed on an orbital shaker, so that the electrode moves over the surface of the skin. The device used in this example is a BTX Gemini X2 programmable signal generator (Harvard Instruments). The electroporation treatment time is about 1 minute. It consists of 81 pulses of 10 ms each, with rest periods of 500 ms between the pulses. The polarity chosen is negative, i.e. the electrode is at a negative potential relative to the counterelectrode. On the skin, the voltage between the electrode and the counterelectrode is about 40 V. 50 μl of […] are applied before the device is placed in position (corresponding to 100 μl/cm^2). […] Results The skin is removed from the experimental system and then analysed to determine the amount of N-acetyl-3-trifluoromethyl-phenyl-(valine-glycine) which has penetrated, via an ELISA technique.",
  "data": [
    {"smiles": "CC(=O)N(c1cccc(C(F)(F)F)c1)C(C(=O)NCC(=O)O)C(C)C", "note": "(centres unmarked) [N-acetyl-3-trifluoromethyl-phenyl-(valine-glycine)]", "values": [
      {"measurement": "amount that has penetrated into the skin", "setting": "electroporation process (81 pulses of 10 ms, 500 ms rest, about 40 V, negative polarity) compared with topical application of an identical composition, 1% formulations 1 and 2, 100 μl/cm^2, FIG. 4", "result": "much higher"},
      {"measurement": "amount that has penetrated into the skin (FIG. 5)", "setting": "electroporation process compared with topical application of an identical composition, FIG. 5", "result": "log higher"}
    ]}
  ]
}
